Data published in patent US20140135270A1, “MACROCYCLIC COMPOUNDS FOR INHIBITION OF INHIBITORS OF APOPTOSIS” (Ensemble Therapeutics Corp., priority 2012, published 2014).

Tests used:
His-BIR3 (241-356, XIAP) = target: T1, His-BIR3 (241-356, XIAP) (Homo sapiens, UniProt P98170); experiment: XIAP-BIR3/SMAC Homogeneous Time Resolved Fluorescence (HTRF) Assay; type: binding; conditions: fluorescein labeled SMAC peptide
T1 construct: additions of His-BIR3 (241-356, XIAP), fluorescein labeled SMAC peptide
T1 sequence (P98170 241-356): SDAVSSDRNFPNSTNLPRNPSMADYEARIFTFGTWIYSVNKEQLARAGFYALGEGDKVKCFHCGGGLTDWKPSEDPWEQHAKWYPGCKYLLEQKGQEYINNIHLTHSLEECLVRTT

[1] = target: T2, His-BIR2-3 (125-356, C202A/C213G, XIAP) (Homo sapiens, UniProt P98170, C202A/C213G); experiment: XIAP-BIR2-3 Dimeric SMAC Peptide Homogeneous Time Resolved Fluorescence (HTRF) Assay; type: binding; conditions: fluorescein labeled dimeric SMAC peptide
T2 construct: additions of His-BIR2-3 (125-356, C202A/C213G, XIAP), fluorescein labeled dimeric SMAC peptide
T2 sequence (P98170 125-356 C202A/C213G): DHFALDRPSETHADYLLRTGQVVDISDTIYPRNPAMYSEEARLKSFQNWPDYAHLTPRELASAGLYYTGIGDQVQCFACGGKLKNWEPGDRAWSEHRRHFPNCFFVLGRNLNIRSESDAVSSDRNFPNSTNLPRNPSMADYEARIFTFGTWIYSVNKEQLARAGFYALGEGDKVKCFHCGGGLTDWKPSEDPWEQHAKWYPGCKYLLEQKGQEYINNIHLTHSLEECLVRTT

Compound | IC50 (His-BIR3 (241-356, XIAP)) [nM] | IC50 [1] [nM]
CN[C@@H](C)C(=O)N[C@H](C(=O)N1C[C@@H]2C[C@H]1C(=O)N[C@@H](Cc1ccc3ccccc3c1)C(=O)N[C@H](C(=O)O)Cc1ccc(cc1)OCc1cn(nn1)[C@H]1C[C@@H](C(=O)N[C@@H](Cc3ccc4ccccc4c3)C(=O)N[C@H](C(=O)NS(C)(=O)=O)Cc3ccc(cc3)OCCCCO2)N(C(=O)[C@@H](NC(=O)[C@H](C)NC)C(C)(C)C)C1)C(C)(C)C [Example 124] | 19.4 | 13.6
CN[C@@H](C)C(=O)N[C@H](C(=O)N1C[C@@H]2C[C@H]1C(=O)NC(Cc1ccc3ccccc3c1)C(=O)N[C@H](c1nnn[nH]1)Cc1ccc(cc1)OC/C=C/C[C@H]1C[C@@H](C(=O)N[C@@H](Cc3ccc4ccccc4c3)C(=O)N[C@H](C(=O)O)Cc3ccc(cc3)OCc3cn2nn3)N(C(=O)[C@@H](NC(=O)[C@H](C)NC)C(C)(C)C)C1)C(C)(C)C (stereo partly drawn) [Example 93] | 0.8 | 0.4
CN[C@@H](C)C(=O)N[C@H](C(=O)N1C[C@@H]2C[C@H]1C(=O)N[C@@H](Cc1ccc3ccccc3c1)C(=O)N[C@H](C(=O)O)Cc1ccc(cc1)OCc1cn(nn1)[C@H]1C[C@@H](C(=O)N[C@@H](Cc3ccc4ccccc4c3)C(=O)N[C@H](c3nnn[nH]3)Cc3ccc(cc3)OCCCCO2)N(C(=O)[C@@H](NC(=O)[C@H](C)NC)C(C)(C)C)C1)C(C)(C)C [Example 128] | 5.5 | 3.3
CN[C@@H](C)C(=O)N[C@H](C(=O)N1C[C@@H]2C[C@H]1C(=O)NC(Cc1ccc3ccccc3c1)C(=O)N[C@H](C(=O)O)CCCCOC/C=C/C[C@H]1C[C@@H](C(=O)N[C@@H](Cc3ccc4ccccc4c3)C(=O)N[C@H](C(=O)O)Cc3ccc(cc3)OCc3cn2nn3)N(C(=O)[C@@H](NC(=O)[C@H](C)NC)C(C)(C)C)C1)C(C)(C)C (stereo partly drawn) [Example 96] | 7.1 | 1
CN[C@@H](C)C(=O)N[C@H](C(=O)N1C[C@@H]2C[C@H]1C(=O)N[C@@H](Cc1ccc3ccccc3c1)C(=O)N[C@H](C(=O)O)Cc1ccc(cc1)OCCCC[C@H]1C[C@@H](C(=O)N[C@@H](Cc3ccc4ccccc4c3)C(=O)N[C@H](C(=O)NS(C)(=O)=O)Cc3ccc(cc3)OCc3cn2nn3)N(C(=O)[C@@H](NC(=O)[C@H](C)NC)C(C)(C)C)C1)C(C)(C)C [Example 2] | 2.3 | 0.8
CN[C@@H](C)C(=O)N[C@H](C(=O)N1C[C@@H]2C[C@H]1C(=O)NC(Cc1ccc3ccccc3c1)C(=O)N[C@H](C(=O)NS(=O)(=O)CCCO)Cc1ccc(cc1)OCCCC[C@H]1C[C@@H](C(=O)N[C@@H](Cc3ccc4ccccc4c3)C(=O)N[C@H](C(=O)O)Cc3ccc(cc3)OCc3cn2nn3)N(C(=O)[C@@H](NC(=O)[C@H](C)NC)C(C)(C)C)C1)C(C)(C)C (stereo partly drawn) [Example 101] | 6.1 | 1
CN[C@@H](C)C(=O)N[C@H](C(=O)N1C[C@@H]2C[C@H]1C(=O)N[C@@H](Cc1ccc3ccccc3c1)C(=O)N[C@H](C(=O)O)Cc1ccc(cc1)CCCC[C@H]1C[C@@H](C(=O)N[C@@H](Cc3ccc4ccccc4c3)C(=O)N[C@H](C(=O)NS(=O)(=O)C3CC3)Cc3ccc(cc3)OCc3cn2nn3)N(C(=O)[C@@H](NC(=O)[C@H](C)NC)C(C)(C)C)C1)C(C)(C)C [Example 119] | 2.8 | 3.4
CN[C@@H](C)C(=O)N[C@H](C(=O)N1C[C@@H]2C[C@H]1C(=O)N[C@@H](Cc1ccc3ccccc3c1)C(=O)N[C@H](C(=O)O)Cc1ccc(cc1)OCc1cn(nn1)[C@H]1C[C@@H](C(=O)N[C@@H](Cc3ccc4ccccc4c3)C(=O)N[C@H](C(=O)NS(=O)(=O)C3CC3)Cc3ccc(cc3)OCCCCO2)N(C(=O)[C@@H](NC(=O)[C@H](C)NC)C(C)(C)C)C1)C(C)(C)C [Example 122] | 12.9 | 11.3

The remaining compounds from weak to strong by IC50 (His-BIR3 (241-356, XIAP)), led by results:

IC50 (His-BIR3 (241-356, XIAP)) [nM] | IC50 [1] [nM] | Compound
49.7 | 13.2 | CN[C@@H](C)C(=O)N[C@H](C(=O)N1C[C@@H]2C[C@H]1C(=O)N[C@@H](Cc1ccc3ccccc3c1)C(=O)N[C@H](C(=O)O)Cc1ccc(cc1)OC/C=C/CO[C@H]1C[C@@H](C(=O)N3Cc4ccccc4C[C@H]3C(=O)N[C@H](C(=O)NS(=O)(=O)C3CC3)Cc3ccc(cc3)OCc3cn2nn3)N(C(=O)[C@@H](NC(=O)[C@H](C)NC)C(C)(C)C)C1)C(C)(C)C [Example 105]
35.3 | 16.8 | CN[C@@H](C)C(=O)N[C@H](C(=O)N1CC[C@@H]2OC/C=C/CC[C@@H](C(=O)O)NC(=O)[C@H](Cc3ccc4ccccc4c3)NC(=O)[C@@H]3[C@H](CCN3C(=O)[C@@H](NC(=O)[C@H](C)NC)C(C)(C)C)OCc3cn(nn3)[C@H](C(=O)NS(C)(=O)=O)CCCNC(=O)[C@H](Cc3ccc4ccccc4c3)NC(=O)[C@H]21)C(C)(C)C [Example 19]
29.3 | 440 | CN[C@@H](C)C(=O)N[C@H](C(=O)N1C[C@@H]2C[C@H]1C(=O)N[C@@H](Cc1ccc3ccccc3c1)C(=O)N[C@H](C(=O)O)Cc1ccc(cc1)OC/C=C/CO[C@H]1C[C@@H](C(=O)N[C@@H](Cc3ccc4ccccc4c3)C(=O)N[C@H](C(=O)O)Cc3ccc(cc3)C(=O)N2)N(C(=O)[C@@H](NC(=O)[C@H](C)N(C)C(C)=O)C(C)(C)C)C1)C(C)(C)C [Example 73]
26.1 | 1.7 | CC[C@H](NC(=O)[C@H](C)NC)C(=O)N1C[C@@H]2C[C@H]1C(=O)N[C@@H](Cc1ccc3ccccc3c1)C(=O)N[C@H](C(=O)NS(=O)(=O)C1CC1)Cc1ccc(cc1)OCc1cn(nn1)[C@H]1C[C@@H](C(=O)N[C@@H](Cc3ccc4ccccc4c3)C(=O)N[C@H](C(=O)O)Cc3ccc(cc3)OC/C=C/CO2)N(C(=O)[C@@H](NC(=O)[C@H](C)NC)C(C)(C)C)C1 [Example 107]
17.9 | 2.7 | CN[C@@H](C)C(=O)N[C@@H](CCC(=O)O)C(=O)N1C[C@@H]2C[C@H]1C(=O)N[C@@H](Cc1ccc3ccccc3c1)C(=O)N[C@H](C(=O)O)Cc1ccc(cc1)C(=O)N[C@H]1C[C@@H](C(=O)N[C@@H](Cc3ccc4ccccc4c3)C(=O)N[C@H](C(=O)O)Cc3ccc(cc3)OC/C=C/CO2)N(C(=O)[C@@H](NC(=O)[C@H](C)NC)C(C)(C)C)C1 [Example 63]
16.8 | 2.5 | CN[C@@H](C)C(=O)N[C@H](C(=O)N1C[C@@H]2C[C@H]1C(=O)N[C@@H](Cc1ccc3ccccc3c1)C(=O)N[C@H](C(=O)O)Cc1ccc(cc1)C(=O)N[C@H]1C[C@@H](C(=O)N[C@@H](Cc3ccc4ccccc4c3)C(=O)N[C@H](C(=O)O)Cc3ccc(cc3)C(=O)N2)N(C(=O)[C@@H](NC(=O)[C@H](C)NC)C(C)(C)C)C1)C(C)(C)C [Example 85]
14.3 | 1.9 | CN[C@@H](C)C(=O)N[C@H](C(=O)N1C[C@@H]2C[C@H]1C(=O)N[C@@H](Cc1ccc3ccccc3c1)C(=O)N[C@H](C(=O)O)Cc1ccc(cc1)C(=O)N[C@H]1C[C@@H](C(=O)N[C@@H](Cc3ccc4ccccc4c3)C(=O)N[C@H](C(=O)O)Cc3ccc(cc3)OC/C=C/CO2)N(C(=O)[C@@H](NC(=O)[C@H](C)NC)C(C)(C)C)C1)C(C)O (stereo partly drawn) [Example 65]
13.5 | 7.1 | CN[C@@H](C)C(=O)N[C@H](C(=O)N1C[C@@H]2C[C@H]1C(=O)N[C@@H](Cc1ccc3ccccc3c1)C(=O)N[C@H](C(=O)O)Cc1ccc(cc1)OC/C=C/CO[C@H]1C[C@@H](C(=O)N[C@@H](Cc3ccc(-c4ccc(O)cc4)cc3)C(=O)N[C@H](C(=O)NS(=O)(=O)C3CC3)Cc3ccc(cc3)OCc3cn2nn3)N(C(=O)[C@@H](NC(=O)[C@H](C)NC)C(C)(C)C)C1)C(C)(C)C [Example 113]
7.5 | 1.1 | CNC(C)C(=O)NC(C(=O)N1CC2CC1C(=O)NC(Cc1ccc3ccccc3c1)C(=O)NC(C(=O)O)Cc1ccc(cc1)OCC=CCOC1CC(C(=O)NC(Cc3ccc4ccccc4c3)C(=O)NC(C(=O)O)Cc3ccc(cc3)CC(=O)N2)N(C(=O)C(NC(=O)C(C)NC)C(C)(C)C)C1)C(C)(C)C (stereo not drawn) [Example 30]
5.9 | 3 | CN[C@@H](C)C(=O)N[C@H](C(=O)N1C[C@H]2CCCCOc3ccc(cc3)C[C@@H](C(=O)NS(=O)(=O)C3CC3)NC(=O)[C@H](Cc3ccc4ccccc4c3)NC(=O)[C@@H]3C[C@H](CCCCOc4ccc(cc4)C[C@@H](C(=O)O)NC(=O)[C@H](Cc4ccc5ccccc5c4)NC(=O)[C@@H]1C2)CN3C(=O)[C@@H](NC(=O)[C@H](C)NC)C(C)(C)C)C(C)(C)C [Example 89]
5.4 | 12.4 | CN[C@@H](C)C(=O)N[C@H](C(=O)N1CCC2[C@H]1C(=O)N[C@@H](Cc1ccc3ccccc3c1)C(=O)N[C@H](C(=O)O)Cc1ccc(cc1)OC/C=C/CO[C@H]1C[C@@H](C(=O)N[C@@H](Cc3ccc4ccccc4c3)C(=O)N[C@H](C(=O)O)Cc3ccc(cc3)OCc3cn2nn3)N(C(=O)[C@@H](NC(=O)[C@H](C)NC)C(C)(C)C)C1)C(C)(C)C (stereo partly drawn) [Example 13]
3.5 | 1.1 | CN[C@@H](C)C(=O)N[C@H](C(=O)N1C[C@H]2C/C=C/COc3ccc(cc3)C[C@@H](C(=O)O)NC(=O)[C@H](Cc3ccc4ccccc4c3)NC(=O)[C@@H]3C[C@@H](CN3C(=O)[C@@H](NC(=O)[C@H](C)NC)C(C)(C)C)NC(=O)c3ccc(cc3)C[C@@H](C(=O)O)NC(=O)C(Cc3ccc4ccccc4c3)NC(=O)[C@@H]1C2)C(C)(C)C (stereo partly drawn) [Example 28]
2.4 | 1.3 | CN[C@@H](C)C(=O)N[C@H](C(=O)N1C[C@@H]2C[C@H]1C(=O)N[C@@H](Cc1ccc3ccccc3c1)C(=O)N[C@H](C(=O)O)Cc1ccc(cc1)OCCCC[C@H]1C[C@@H](C(=O)N[C@@H](Cc3ccc4ccccc4c3)C(=O)N[C@H](C(=O)NS(=O)(=O)C3CC3)Cc3ccc(cc3)OCc3cn2nn3)N(C(=O)[C@@H](NC(=O)[C@H](C)NC)C(C)(C)C)C1)C(C)(C)C [Example 87]
